In paper PMC9268243, “Metabolic Behaviors of Aconitum Alkaloids in Different Concentrations of Aconiti Lateralis Radix Praeparata and Effects of Aconitine in Healthy Human and Long QT Syndrome Cardiomyocytes” (Molecules, 2022):
Like-named read-outs stand apart in the source and are kept apart here.

Legend:
[1] = Pharmacokinetic study of six aconitum alkaloids in rat plasma after oral Fu Zi extracts (UPLC-MS/MS); type: in vivo, Sprague Dawley rats; details: both sexes, Sprague Dawley, in vivo, SD rat plasma, mean ± SD, n = 8; for AUC(0-t): read-out: AUC(0–48h); for CL/F: read-out: CLz/F (converted); for Vd/F: read-out: Vz/F; for half-life: read-out: t1/2z (converted)
Procedure: Fu Zi (200 g) was taken and broken by a pulverizer to the size of 0.5–1.0 cm. The broken Fu Zi was soaked in 1.6 L distilled water and boiled for 0.5 h. The filtrate was collected and the previous step was repeated for the filtered residue. The mixed filtrates were precipitated with 60% ethanol, and then centrifuged (2000× g, 10 min). The supernatant was decompressed and concentrated to a final density of 2.0 g/mL by the amount of the crude drugs. The final concentration of ethanol in Fu Zi extracts before administration was below 0.5%. The extract was subsequently kept at −20 °C for oral administration to rats.
All samples were analyzed on UPLC® I-Class and Xevo® TQS mass spectrometry combined system. Separations by a Waters ACQUITY UPLC® HSS T3(2.1 mm × 100 mm, 1.8 μm) column were conducted with a mobile phase of water (A) and acetonitrile (B), both containing 0.1% formic acid, at the flow rate of 0.3 mL·min^−1.The run time was 5.0 min and the gradient elution program was adopted as follows: 0–0.3 min, 10% B; 0.3–1 min, 10–50% B; 1–2.5 min, 50–90% B; 2.5–3 min, 90% B; 3–5 min, 10% B. The temperature of the column and samples were set at 45 °C and 10 °C, respectively. The volume of injection was 2 μL.
The detection was quantified by a triple quadrupole mass spectrometer that was set as multiple reactive monitoring (MRM) in the electrospray positive ionization mode (ESI+). The correlative parameters were as follows: capillary voltage: 3 kV; desolvation gas flow: 800 L·h^−1; cone gas flow: 150 L·h^−1; source temperature: 150 °C; desolvation temperature: 500 °C.
The method of […] was utilized. An amount of 100 μL of plasma samples from rats after oral administration of Fu Zi extracts was precipitated with 300 μL of 50% acetonitrile plus 50% methanol, vortexed for 1.0 min and centrifuged at a speed of 12,000× g at 4 °C for 10 min. The supernatant was transferred to another 1.5 mL centrifuge tube, dried with a stream of nitrogen at 40 °C, redissolved in 50 μL methanol and centrifuged at 12,000× g for 10 min. Then, the supernatant was pipetted out into the autosampler vials and analyzed by UPLC-MS/MS system.
24 Sprague Dawley rats (half male and female, weight 180–220 g) were purchased from Beijing Weitong Lihua Biotechnology Co.Ltd. (Beijing, China). The license number of experimental animal production was SCXK (Jing) 2016–0006. The animals were maintained under a standard laboratory condition (humidity: 40–70%, room temperature: 20–26 °C, […], 12 h dark-light cycle) and fed separately. All animal experiments were conducted according to the Guide for the Care and Use of Laboratory Animals (National Research Council of the USA, 1996) and approved by the Institutional Animal Care and Use Committee (IACUC-DWZX-2020-776). After 5 days of acclimation, the rats were fasted for 12 h but provided with water freely before the experiments. The rats were randomly divided into 3 groups: high (2.0 g/kg), middle (1.0 g/kg), and low (0.5 g/kg) dose groups. The Fu Zi extracts was administered to each rat intragastrically. An equivalent of 0.20 mL blood samples were collected from the fossa orbitalis vein into 1.5 mL heparinized centrifuge tubes at the designated time points after dosing: 0.08, 0.25, 0.5, 1, 2, 4, 8, 12, 24, and 48 h. The plasma samples were pipetted out into another 1.5 mL centrifuge tubes after being centrifuged at 5000× g for 10 min and then stored at −20 °C until further analysis.
The data were acquired by […] from Waters (UNIFI). Microsoft Office Excel and the SPSS software (Version 13.0) was used for data analysis. The data below the LLOQ were regarded as zero in summary statistics. The pharmacokinetic parameters were calculated by DAS pharmacokinetic program (Version 2.0) and all analyzed by non-compartmental method. […] All data were presented as mean ± SD. […]

normal hiPSC-CMs = assay: Impedance beating recordings (cell index, beat rate, amplitude), normal hiPSC-CMs; type: cell-based, human
Procedure: HiPSCs derived from healthy controls (Cat: NC20010002; Lot.HJ210577NC22), or patients (Cat. NC20300002; Lot. CP210578NC04) diagnosed with LQT syndrome was maintained in HELP4004 (HELP, Nanjing, China) medium on Matrigel-coated (BD Bio science, San Jose, CA, USA) plates at 37 °C; with 5% CO2 (v/v).
The cardiomyocytes were seeded on Nanion CardioExcyte 96 Sensor Plates (NSP-96, Nanion Technologies, Munich, Germany) after 0.1% gelatin coating for 1 h. The initial volume was 200 μL per well and contained approximately […]. After seeding, the NSP-96 and CardioExcyte 96 were returned to the incubator. All cells were replaced with fresh medium 200 μL per well every 48 h and tested after 168 h. Cellular index, beat rate, base impedance and beat amplitude were monitored in this experiment.
Isoproterenol, nifedipine, and AC were purchased from Sigma-Aldrich, which were resolved in DMSO (Sigma-Aldrich, D2650). Drug compounds final concentration were AC (0.05, 0.5,5 μM), nifedipine (1 μM), isoproterenol (3 μM), respectively. Dilutions were prepared within 60 min of treatment. All the compound solutions were subjected to regular 10 min ultrasound and oscillations to ensure that compounds were completely dissolved. Equal amounts of DMSO (0.1%) were used as the vehicle controls.

Question: For `CCN1C[C@]2(COC)[C@H](O)C[C@H](OC)[C@@]34[C@@H]5C[C@@]6(O)[C@H](OC(=O)c7ccccc7)[C@@H]5[C@@](OC(C)=O)([C@@H]([C@H](OC)[C@H]23)[C@@H]14)[C@@H](O)[C@@H]6OC` [AC, aconitine], which Cmax ([1]; oral Fu Zi extracts 0.5 g/kg) is on record?
Answer: 1.28 ± 0.34 ng/mL

Question: What about the Tmax ([1]; oral Fu Zi extracts 0.5 g/kg) of the same molecule?
Answer: 4.38 ± 3.11 h

Question: And the AUC(0-t) ([1]; oral Fu Zi extracts 0.5 g/kg)?
Answer: 13.5 ± 3.28 ng·h/mL

Question: And the CL/F ([1]; oral Fu Zi extracts 0.5 g/kg)?
Answer: 77 mL/min/kg

Question: What about the Vd/F ([1]; oral Fu Zi extracts 0.5 g/kg) of the same molecule?
Answer: 14 ± 4.33 L/kg

Question: What about the half-life ([1]; oral Fu Zi extracts 0.5 g/kg) of the same molecule?
Answer: 1.9 ± 0.31 h

Question: What about the Cmax ([1]; oral Fu Zi extracts 1.0 g/kg) of the same molecule?
Answer: 1.69 ± 0.33 ng/mL

Question: What about the Tmax ([1]; oral Fu Zi extracts 1.0 g/kg) of the same molecule?
Answer: 3.13 ± 1.25 h

Question: And the AUC(0-t) ([1]; oral Fu Zi extracts 1.0 g/kg)?
Answer: 17.1 ± 4.68 ng·h/mL

Question: What about the CL/F ([1]; oral Fu Zi extracts 1.0 g/kg) of the same molecule?
Answer: 106 mL/min/kg

Question: And the Vd/F ([1]; oral Fu Zi extracts 1.0 g/kg)?
Answer: 70 ± 33.4 L/kg

Question: What about the half-life ([1]; oral Fu Zi extracts 1.0 g/kg) of the same molecule?
Answer: 7.53 ± 2.74 h

Question: And the Cmax ([1]; oral Fu Zi extracts 2.0 g/kg)?
Answer: 2.27 ± 0.7 ng/mL

Question: What about the Tmax ([1]; oral Fu Zi extracts 2.0 g/kg) of the same molecule?
Answer: 1.03 ± 0.84 h

Question: What about the AUC(0-t) ([1]; oral Fu Zi extracts 2.0 g/kg) of the same molecule?
Answer: 23.8 ± 7.77 ng·h/mL

Question: And the CL/F ([1]; oral Fu Zi extracts 2.0 g/kg)?
Answer: 148 mL/min/kg

Question: And the Vd/F ([1]; oral Fu Zi extracts 2.0 g/kg)?
Answer: 167 ± 80.1 L/kg

Question: What about the half-life ([1]; oral Fu Zi extracts 2.0 g/kg) of the same molecule?
Answer: 11.5 ± 4.3 h

Question: What about the amplitude (normal hiPSC-CMs; normal hiPSC-CMs) of the same molecule?
Answer: concentration-dependently decreased

Question: What about the cell index (normal hiPSC-CMs; normal hiPSC-CMs) of the same molecule?
Answer: no significant effect

Question: What about the cell beat rate (normal hiPSC-CMs; normal hiPSC-CMs, 0.5 μM) of the same molecule?
Answer: faster after 12 h

Question: What about the cell contractility (normal hiPSC-CMs; normal hiPSC-CMs, 0.5 μM) of the same molecule?
Answer: decreased cell contractility

Question: What about the cell frequency (normal hiPSC-CMs; normal hiPSC-CMs, 0.5 μM) of the same molecule?
Answer: increased cell frequency

Question: And the cell contractility (normal hiPSC-CMs; normal hiPSC-CMs, 5 μM, very weak within 6 h after treatment)?
Answer: significantly reduced

Question: What about the cardiomyocyte death (normal hiPSC-CMs; normal hiPSC-CMs, 0.05, 0.5 and 5 μM, 48 h observation period) of the same molecule?
Answer: None of the three concentrations (0.05, 0.5, and 5 μM) AC caused cardiomyocyte death

Question: And the contraction force (normal hiPSC-CMs; normal hiPSC-CMs, versus control group, concentration not given)?
Answer: slightly lower
